Experimental data taken from patent US20120058956A1, “PEPTIDES DERIVED FROM FICOLIN AS SURFACTANTS” (METAMOREFIX LTD., priority 2009, published 2012).

Test: transport of hyaluronic acid through pig skin (Franz cell)
Protocol: Skin samples (stored at −80° C.) were thawed at 4° C. for approximately 15 hr followed by 1 hr at room temperature prior to use. A thawed pig dermatomed skin sample was mounted horizontally on a Franz cell, dermis side down. […] The receptor phase consisted of PBS pH 7.4 with continuous stirring.
A test formulation, formulated as a suspension was applied to the skin and uniformly dispersed over the skin surface at a surface density of at least 1.0 g/cm^2 to insure pseudo-infinite dose conditions. The formulations consisted of a peptide surfactant of the invention together with hyaluronic acid. The formulations used were as described in the following table: […]
The dose chamber was sealed with an occlusive film to prevent loss of any volatile component of the test formulation. […] Each aliquot was replaced with an equal volume of PBS.
The samples were analyzed for the presence of hyaluronic acid by the Carbazole method as is known in the art.

| Compound | HA traversed the skin (pH 7.4) | HA traversed the skin (control, surfactant omitted, 5 mg/ml HA, period of 6 hours, Franz cell, receptor PBS pH 7.4, curve 1 in FIG. 1) |
| --- | --- | --- |
| CCCCCCCCCCCC(=O)N(C)CC(=O)[O-].[Na+] [NLS, N Lauroyl Sarcosine Sodium salt] | about 65 ?g/cm^2 | – |
| hyaluronic acid [HA] | – | about 40 ?g/cm^2 |
